Assays:
DU-145 = test: NCI SRB cytotoxicity, prostate DU-145; format: cell-based; details: Homo sapiens, 48 h exposure
Experimental: (§1) The pyrazolochalcones (7e, 8e, 10e, 11e, 12e, 13e and 8f) have been tested against fifty nine human tumor cell lines derived from nine cancer types (leukemia, non-small cell lung cancer, colon cancer, CNS cancer, melanoma, ovarian cancer, renal cancer, prostate cancer and breast cancer) as per the NCI protocol. For each compound, dose response curves for individual cell lines have been measured at a minimum of five concentrations at 10 fold dilutions. A protocol of 48 h continuous drug exposure has been used, and a sulforhodamine B (SRB) protein assay has been used to estimate cell viability or growth. The concentration for 50% cell growth inhibition (GI50), 50% cell death (LC50, 50% growth) and total cell growth inhibition (TGI, 0% growth) values were tabulated (Table-1). DMSO was used as control to calculate the values of GI50, LC50 and TGI. The compounds 7e, 8e, 10e, 11e, 12e, 13e and 8f has been evaluated for their in vitro cytotoxicity in […] cell lines from nine human cancer types of leukemia (K-562, SR), non-small cell lung (Hop-62, NCI-H226, NCI-H522), colon (HCT-116, HCT-15, HCC-2998), CNS (SF-539), melanoma (SK-MEL-5, UACC-62, M14), ovarian (IGROV1), renal (A498), prostate (PC3) and breast (BT-549, MDA-MB-435, HS578T) origin. The results are expressed as percent of cell growth determined relative to that of untreated control cells (Table 2).

HCT-116 = test: NCI SRB cytotoxicity, colon HCT-116; format: cell-based; details: Homo sapiens, 48 h exposure
Experimental: as §1

MDA-MB-435 [1] = test: NCI SRB cytotoxicity, melanoma MDA-MB-435; format: cell-based; details: Homo sapiens, Melanoma panel MDA-MB-435, 48 h exposure
Experimental: as §1

SN12C = test: NCI SRB cytotoxicity, renal SN12C; format: cell-based; details: Homo sapiens, 48 h exposure
Experimental: as §1

SF-539 = test: NCI SRB cytotoxicity, CNS SF-539; format: cell-based; details: Homo sapiens, 48 h exposure
Experimental: as §1

T-47D = test: NCI SRB cytotoxicity, breast T-47D; format: cell-based; details: Homo sapiens, T47D, 48 h exposure
Experimental: as §1

Prostate = test: NCI SRB cytotoxicity, prostate panel average; format: cell-based, human; details: average of cell lines; for GI50 / CC50: Homo sapiens; for GI50: read-out: Log10 GI50 (concentration in mol/L causing 50% growth inhibition) (converted); for CC50: read-out: Log10 LC50 (concentration in mol/L causing 50% cell death) (converted)
Experimental: as §1
(§2) Each cancer type represents the average of six to eight different cancer cell lines.

HCT-15 = test: NCI SRB cytotoxicity, colon HCT-15; format: cell-based; details: Homo sapiens, 48 h exposure
Experimental: as §1

RXF 393 = test: NCI SRB cytotoxicity, renal RXF 393; format: cell-based; details: Homo sapiens, 48 h exposure
Experimental: as §1

MALME-3M = test: NCI SRB cytotoxicity, melanoma MALME-3M; format: cell-based; details: Homo sapiens, 48 h exposure
Experimental: as §1

Renal = test: NCI SRB cytotoxicity, renal panel average; format: cell-based, human; details: average of cell lines; for GI50 / CC50: Homo sapiens; for GI50: read-out: Log10 GI50 (concentration in mol/L causing 50% growth inhibition) (converted); for CC50: read-out: Log10 LC50 (concentration in mol/L causing 50% cell death) (converted)
Experimental: as §1, §2

SK-MEL-5 = test: NCI SRB cytotoxicity, melanoma SK-MEL-5; format: cell-based; details: Homo sapiens, 48 h exposure
Experimental: as §1

ACHN = test: NCI SRB cytotoxicity, renal ACHN; format: cell-based; details: Homo sapiens, 48 h exposure
Experimental: as §1

CCRF-CEM = test: NCI SRB cytotoxicity, leukemia CCRF-CEM; format: cell-based; details: Homo sapiens, 48 h exposure
Experimental: as §1

BT-549 = test: NCI SRB cytotoxicity, breast BT-549; format: cell-based; details: Homo sapiens, 48 h exposure
Experimental: as §1

MDA-MB-435 [2] = test: NCI SRB cytotoxicity, breast panel MDA-MB-435; format: cell-based; details: Homo sapiens, 48 h exposure
Experimental: as §1

HL-60(TB) = test: NCI SRB cytotoxicity, leukemia HL-60(TB); format: cell-based; details: Homo sapiens, 48 h exposure
Experimental: as §1

A549/ATCC = test: NCI SRB cytotoxicity, non-small cell lung A549/ATCC; format: cell-based; details: Homo sapiens, 48 h exposure
Experimental: as §1

SF-268 = test: NCI SRB cytotoxicity, CNS SF-268; format: cell-based; details: Homo sapiens, 48 h exposure
Experimental: as §1

HOP-62 = test: NCI SRB cytotoxicity, non-small cell lung HOP-62; format: cell-based; details: Homo sapiens, 48 h exposure
Experimental: as §1

SNB-75 = test: NCI SRB cytotoxicity, CNS SNB-75; format: cell-based; details: Homo sapiens, 48 h exposure
Experimental: as §1

OVCAR-3 = test: NCI SRB cytotoxicity, ovarian OVCAR-3; format: cell-based; details: Homo sapiens, 48 h exposure
Experimental: as §1

TK-10 = test: NCI SRB cytotoxicity, renal TK-10; format: cell-based; details: Homo sapiens, 48 h exposure
Experimental: as §1

Melanoma = test: NCI SRB cytotoxicity, melanoma panel average; format: cell-based, human; details: average of cell lines; for GI50 / LC50: Homo sapiens; for GI50: read-out: Log10 GI50 (concentration in mol/L causing 50% growth inhibition) (converted); for LC50: read-out: Log10 LC50 (concentration in mol/L causing 50% cell death) (converted)
Experimental: as §1, §2

UO-31 = test: NCI SRB cytotoxicity, renal UO-31; format: cell-based; details: Homo sapiens, 48 h exposure
Experimental: as §1

Breast = test: NCI SRB cytotoxicity, breast panel average; format: cell-based, human; details: average of cell lines; for GI50 / CC50: Homo sapiens; for GI50: read-out: Log10 GI50 (concentration in mol/L causing 50% growth inhibition) (converted); for CC50: read-out: Log10 LC50 (concentration in mol/L causing 50% cell death) (converted)
Experimental: as §1, §2

UACC-257 = test: NCI SRB cytotoxicity, melanoma UACC-257; format: cell-based; details: Homo sapiens, 48 h exposure
Experimental: as §1

RPMI-8226 = test: NCI SRB cytotoxicity, leukemia RPMI-8226; format: cell-based; details: Homo sapiens, 48 h exposure
Experimental: as §1

OVCAR-4 = test: NCI SRB cytotoxicity, ovarian OVCAR-4; format: cell-based; details: Homo sapiens, 48 h exposure
Experimental: as §1

OVCAR-8 = test: NCI SRB cytotoxicity, ovarian OVCAR-8; format: cell-based; details: Homo sapiens, 48 h exposure
Experimental: as §1

NCI-H460 = test: NCI SRB cytotoxicity, non-small cell lung NCI-H460; format: cell-based; details: Homo sapiens, 48 h exposure
Experimental: as §1

HOP92 = test: NCI SRB cytotoxicity, non-small cell lung HOP92; format: cell-based; details: Homo sapiens, HOP-92, 48 h exposure
Experimental: as §1

SMILES | GI50 (HCT-116) | GI50 (MDA-MB-435 [1]) | GI50 (SN12C) | GI50 (SF-539) | GI50 (T-47D) | GI50 (Prostate) | CC50 (Prostate) | Log10 TGI (concentration in mol/L causing total growth inhibition (0% growth)) (Prostate) | GI50 (HCT-15) | GI50 (RXF 393) | GI50 (MALME-3M) | GI50 (Renal) | CC50 (Renal) | Log10 TGI (concentration in mol/L causing total growth inhibition (0% growth)) (Renal) | GI50 (SK-MEL-5) | GI50 (ACHN) | GI50 (CCRF-CEM) | GI50 (BT-549) | GI50 (MDA-MB-435 [2]) | GI50 (HL-60(TB)) | other results
COc1ccc(C(=O)/C=C/c2cc(-c3cc(OC)c(OC)c(OC)c3)n[nH]2)cc1OC [8e, (E)-1-(3,4-dimethoxyphenyl)-3-(3-(3,4,5-trimethoxyphenyl)-1H-pyrazol-5-yl)prop-2-en-1-one] | 880 nM | 1340 nM | 1540 nM | 1270 nM | 1630 nM | 871 nM | 5.25 µM | −5.64 mol/L | 1270 nM | 1350 nM | 1990 nM | 1510 nM | 6.61 µM | −5.51 mol/L | 1650 nM | 1660 nM | 620 nM | 1440 nM | 750 nM | 1440 nM | GI50 (DU-145): 550 nM; GI50 (A549/ATCC): 1860 nM; GI50 (SF-268): 1820 nM; GI50 (HOP-62): 1440 nM; GI50 (SNB-75): 1230 nM; GI50 (OVCAR-3): 1680 nM; GI50 (TK-10): 1330 nM; GI50 (Melanoma): 1700 nM; LC50 (Melanoma): 6.17 µM; Log10 TGI (concentration in mol/L causing total growth inhibition) (Melanoma): −5.49 mol/L; GI50 (UO-31): 1280 nM; GI50 (Breast): 1230 nM; CC50 (Breast): 15.1 µM; Log10 TGI (concentration in mol/L causing total growth inhibition (0% growth)) (Breast): −5.47 mol/L; GI50 (UACC-257): 1490 nM; GI50 (RPMI-8226): 240 nM; GI50 (OVCAR-4): 2690 nM; GI50 (OVCAR-8): 1320 nM; GI50 (NCI-H460): 1410 nM
COc1cc(C(=O)/C=C/c2cc(-c3cc(OC)c(OC)c(OC)c3)n[nH]2)cc(OC)c1OC [10e, (E)-1-(3,4,5-trimethoxyphenyl)-3-(3-(3,4,5-trimethoxyphenyl)-1H-pyrazol-5-yl)prop-2-en-1-one] | 1310 nM | 1490 nM | 1470 nM | 1290 nM | 1130 nM | 1480 nM | 7.41 µM | −5.48 mol/L | 1500 nM | 1260 nM | 1860 nM | 1580 nM | 7.59 µM | −5.45 mol/L | 1570 nM | 1620 nM | 1680 nM | 1570 nM | 1150 nM | 1930 nM | GI50 (A549/ATCC): 2720 nM; GI50 (SF-268): 1940 nM; GI50 (HOP-62): 1460 nM; GI50 (SNB-75): 1540 nM; GI50 (OVCAR-3): 1750 nM; GI50 (TK-10): 1460 nM; GI50 (Melanoma): 1700 nM; LC50 (Melanoma): 6.46 µM; Log10 TGI (concentration in mol/L causing total growth inhibition) (Melanoma): −5.47 mol/L; GI50 (UO-31): 1190 nM; GI50 (Breast): 1350 nM; CC50 (Breast): 10 µM; Log10 TGI (concentration in mol/L causing total growth inhibition (0% growth)) (Breast): −5.35 mol/L; GI50 (UACC-257): 1570 nM; GI50 (RPMI-8226): 310 nM; GI50 (OVCAR-4): 1450 nM; GI50 (OVCAR-8): 1580 nM; GI50 (NCI-H460): 1890 nM; GI50 (HOP92): 860 nM

— US9604933B2, “Pyrazolochalcones as potential anticancer agents” (COUNCIL OF SCIENTIFIC AND INDUSTRIAL RESEARCH, priority 2013, dated 2017)
